We go through one compound from ChEMBL document CHEMBL4477226, “Reduction Sensitive Lipid Conjugates of Tenofovir: Synthesis, Stability, and Antiviral Activity” (J Med Chem, 2016).

As a reminder, the half-life is how long it takes for the measured level to halve. Read a high half-life as slow decline.

Structures are written as SMILES.

A short description of data set [1]: Half life in RPMI 1640 culture medium at 10^-3 M by HPLC analysis. Type of data set: physicochemical.
The nature of data set [2]: Half life in pH 7.4 Tris HCl buffer containing KCl at 10^-3 M by HPLC analysis. It counts as physicochemical.
The nature of data set [3]: Half life in human gastric juice. Type of data set: ADME, tissue-based.
Data set [4] is described as follows: Half life in human serum at 10^-3 M by HPLC analysis. It counts as ADME, cell-free.
Data set [5] is described as follows: Half life in pH 2 solution at 10^-3 M by HPLC analysis. Type of data set: physicochemical.

With `Nc1ncnc2c1ncn2CCOCP(=O)(OCCSSCCO)OCCSSCCO`, the half-life at 1000 µM in data set [1] was more than 24 h; in data set [2], more than 24 h; in data set [4], less than 4.98 min; in data set [5] it was more than 24 h. The compound further displayed a half-life in data set [3] of more than 24 h.
